Test results published in patent publication US9834558B2, “Substituted bridged urea analogs as sirtuin modulators” (GLAXOSMITHKLINE LLC, priority 2013, dated 2017).

The compounds below were run against T1, SIRT1 (Homo sapiens, UniProt Q96EB6) (assay: Trp mass spectrometry assay of SIRT1 activation). Settings: Trp mass spectrometry assay; EC1.5 = concentration of test compound that results in 150% activation of SIRT1.
T1 sequence (Q96EB6 1-747): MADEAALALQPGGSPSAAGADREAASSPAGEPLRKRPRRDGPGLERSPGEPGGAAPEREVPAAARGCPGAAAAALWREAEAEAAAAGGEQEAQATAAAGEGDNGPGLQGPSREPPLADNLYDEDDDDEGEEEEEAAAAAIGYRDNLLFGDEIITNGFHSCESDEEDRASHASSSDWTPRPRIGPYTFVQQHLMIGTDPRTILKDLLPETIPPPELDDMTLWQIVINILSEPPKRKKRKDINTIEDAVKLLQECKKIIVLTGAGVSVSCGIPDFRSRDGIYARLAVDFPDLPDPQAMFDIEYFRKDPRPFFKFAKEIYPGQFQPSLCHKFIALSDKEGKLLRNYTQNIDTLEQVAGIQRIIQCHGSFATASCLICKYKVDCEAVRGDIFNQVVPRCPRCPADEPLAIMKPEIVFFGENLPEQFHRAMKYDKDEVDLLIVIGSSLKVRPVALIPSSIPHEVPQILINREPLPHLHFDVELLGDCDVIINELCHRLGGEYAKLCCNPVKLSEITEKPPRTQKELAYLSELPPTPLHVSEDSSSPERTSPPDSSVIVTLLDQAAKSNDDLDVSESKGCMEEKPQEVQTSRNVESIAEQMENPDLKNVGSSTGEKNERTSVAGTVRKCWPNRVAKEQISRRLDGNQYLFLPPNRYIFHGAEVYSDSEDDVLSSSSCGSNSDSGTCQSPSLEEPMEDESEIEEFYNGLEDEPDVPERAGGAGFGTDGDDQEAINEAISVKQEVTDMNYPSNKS
Assay type: biochemical
Method in brief: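 Activation read-out: mass-spec measurement of O-acetyl-ADP-ribose or deacetylated Trp peptide versus compound-free controls, giving EC1.5 and Percent Maximum Activation. Reactions ran 25 min at 25 °C, pH 7.5, with 120 μM βNAD+, 0.5 μM acetylated p53-derived peptide and 10 nM His-tagged SIRT1.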

| SMILES | Tryp AVG EC1.5 (μM) |
| --- | --- |
| O=C(Nc1cccnc1)N1c2nc(-c3cncc(Cl)c3)ccc2N2CC[C@H]1C2 [Example 526] | A (A (EC1.5<1 μM)) |
| COc1cc(NC(=O)N2c3nc(-c4cccc(N5CCOCC5)c4)ccc3N3CCC[C@H]2C3)ncn1 [Example 528] | B (B (EC1.5 1-25 μM)) |
| O=C(Nc1ccncn1)N1c2nc(-c3cccc(N4CCOCC4)c3)ccc2N2CCC[C@H]1C2 [Example 529] | B (B (EC1.5 1-25 μM)) |
| O=C(O)c1cc(NC(=S)NCc2ccc(NC(=O)N3c4nc(-c5cccc(C(F)(F)F)c5)ccc4N4CC[C@H]3C4)cc2)ccc1-c1c2ccc(=O)cc-2oc2cc(O)ccc12 [Example 530] | A (A (EC1.5<1 μM)) |
| Cc1c(-c2ccc3c(n2)C(C(=O)Nc2ccccn2)[C@H]2CCN3C2)cnn1C (stereo partly shown) [Example 531] | B (B (EC1.5 1-25 μM)) |
| Cc1c(-c2ccc3c(n2)C(C(=O)Nc2cnccn2)[C@H]2CCN3C2)cnn1C (stereo partly shown) [Example 532] | B (B (EC1.5 1-25 μM)) |
| O=C(Nc1ccccn1)N1c2nc(-c3cccc(Cl)c3)ccc2N2CCC1CC2 [Example 533] | B (B (EC1.5 1-25 μM)) |
| O=C(Nc1ccncn1)N1c2nc(-c3cccc(Cl)c3)ccc2N2CCC1CC2 [Example 534] | B (B (EC1.5 1-25 μM)) |
| N#Cc1cncc(-c2ccc3c(n2)N(C(=O)Nc2cncc(F)c2)[C@H]2CCCN3C2)c1 [Example 535] | B (B (EC1.5 1-25 μM)) |
| O=C(Nc1ccccn1)N1c2nc(-c3cccc(N4CCOCC4)c3)ccc2N2CCC[C@H]1C2 [Example 536] | B (B (EC1.5 1-25 μM)) |
| Cc1nc(NC(=O)N2c3nc(-c4cccc(N5CCOCC5)c4)ccc3N3CCC[C@H]2C3)sc1C [Example 537] | B (B (EC1.5 1-25 μM)) |
| O=C(Nc1cccnc1)N1c2nc(-c3cccc(N4CCOCC4)c3)ccc2N2CCC[C@H]1C2 [Example 538] | A (A (EC1.5<1 μM)) |
| O=C(Nc1cccnn1)N1c2nc(-c3cccc(N4CCOCC4)c3)ccc2N2CCC[C@H]1C2 [Example 539] | B (B (EC1.5 1-25 μM)) |
| Cc1cc(NC(=O)N2c3nc(-c4cccc(C(F)(F)F)c4)ccc3N3CC[C@H]2C3)cc(Br)n1 [Example 540] | A (A (EC1.5<1 μM)) |
| O=C(Nc1ccnc(Br)c1)N1c2nc(-c3cccc(C(F)(F)F)c3)ccc2N2CC[C@H]1C2 [Example 541] | A (A (EC1.5<1 μM)) |
| O=C(Nc1cncc(Br)c1)N1c2nc(-c3cccc(C(F)(F)F)c3)ccc2N2CC[C@H]1C2 [Example 542] | A (A (EC1.5<1 μM)) |
| O=C(Nc1cnccn1)N1c2nc(-c3cccc(Cl)c3)ccc2N2CCC1CC2 [Example 543] | B (B (EC1.5 1-25 μM)) |
| O=C(Nc1cccnc1)N1c2nc(-c3cncc(Cl)c3)ccc2N2CCC1CC2 [Example 544] | B (B (EC1.5 1-25 μM)) |
| O=C(Nc1cncc(F)c1)N1c2nc(-c3cncc(Cl)c3)ccc2N2CCC1CC2 [Example 545] | B (B (EC1.5 1-25 μM)) |
| O=C(CCCCCNC(=O)c1ccc(-c2c3ccc(=O)cc-3oc3cc(O)ccc23)c(C(=O)O)c1)NCc1ccc(NC(=O)N2c3nc(-c4cccc(C(F)(F)F)c4)ccc3N3CC[C@H]2C3)cc1 [Example 547] | C (C (EC1.5>25 μM)) |
| CC1(CCC(=O)NCc2ccc(NC(=O)N3c4nc(-c5cccc(C(F)(F)F)c5)ccc4N4CC[C@H]3C4)cc2)N=N1 [Example 548] | B (B (EC1.5 1-25 μM)) |
| O=C(Nc1cccnc1)N1c2nc(-c3cnn(-c4ccccc4)c3)ccc2N2CC[C@H]1C2 [Example 549] | B (B (EC1.5 1-25 μM)) |
| O=C(Nc1cnccn1)N1c2nc(-c3cncc(Cl)c3)ccc2N2CCC1CC2 [Example 550] | B (B (EC1.5 1-25 μM)) |
| O=C(Nc1ccccn1)N1c2nc(-c3cncc(Cl)c3)ccc2N2CCC1CC2 [Example 551] | B (B (EC1.5 1-25 μM)) |
| COc1cc(NC(=O)N2c3nc(-c4cncc(Cl)c4)ccc3N3CCC2CC3)ncn1 [Example 552] | C (C (EC1.5>25 μM)) |
| COc1cc(NC(=O)N2c3nc(-c4cncc(Cl)c4)ccc3N3CCC2CC3)nc(OC)n1 [Example 553] | B (B (EC1.5 1-25 μM)) |
| Cc1nc(NC(=O)N2c3nc(-c4cncc(Cl)c4)ccc3N3CCC2CC3)sc1C [Example 554] | B (B (EC1.5 1-25 μM)) |

| SMILES | Tryp AVG EC1.5 (μM) |
| --- | --- |
| O=C(Nc1cnccn1)N1c2nc(-c3cncc(F)c3)ccc2N2CCC1CC2 [Example 555] | B (B (EC1.5 1-25 μM)) |
| O=C(Nc1cccnc1)N1c2nc(-c3cncc(C(F)(F)F)c3)ccc2N2CC[C@H]1C2 [Example 556] | A (A (EC1.5<1 μM)) |
| N#Cc1cncc(-c2ccc3c(n2)N(C(=O)Nc2ccccn2)[C@H]2CCCN3C2)c1 [Example 557] | A (A (EC1.5<1 μM)) |
| N#Cc1cncc(-c2ccc3c(n2)N(C(=O)Nc2ccncn2)[C@H]2CCCN3C2)c1 [Example 558] | B (B (EC1.5 1-25 μM)) |
| O=C(Nc1cncc(F)c1)N1c2nc(-c3cccc(N4CCOCC4)c3)ccc2N2CCC[C@H]1C2 [Example 559] | A (A (EC1.5<1 μM)) |
| O=C(Nc1cnccn1)N1c2nc(-c3cccc(N4CCOCC4)c3)ccc2N2CCC[C@H]1C2 [Example 560] | B (B (EC1.5 1-25 μM)) |
| Cc1cc(-c2ccc3c(n2)N(C(=O)Nc2cnc(OC[C@@H](O)CO)cn2)[C@H]2CCN3C2)ccn1 [Example 561] | B (B (EC1.5 1-25 μM)) |
| O=C(Nc1cc(Br)cc(-c2cnco2)c1)N1c2nc(-c3cccc(C(F)(F)F)c3)ccc2N2CC[C@H]1C2 [Example 562] | A (A (EC1.5<1 μM)) |
| O=C(O)c1cc(NC(=S)NCc2ccc(NC(=O)N3c4nc(-c5cccc(C(F)(F)F)c5)ccc4N4CCC[C@H]3C4)cc2)ccc1-c1c2ccc(=O)cc-2oc2cc(O)ccc12 [Example 563] | A (A (EC1.5<1 μM)) |
| Cc1nc(NC(=O)N2c3nc(-c4cccc(Cl)c4)ccc3N3CCC2CC3)sc1C [Example 569] | B (B (EC1.5 1-25 μM)) |
| O=C(Nc1ccccn1)N1c2nc(-c3cncc(F)c3)ccc2N2CCC1CC2 [Example 570] | B (B (EC1.5 1-25 μM)) |
| O=C(Nc1cncc(F)c1)N1c2nc(-c3cncc(F)c3)ccc2N2CCC1CC2 [Example 571] | B (B (EC1.5 1-25 μM)) |
| O=C(Nc1cccnc1)N1c2nc(-c3cncc(F)c3)ccc2N2CCC1CC2 [Example 572] | B (B (EC1.5 1-25 μM)) |
| O=C(Nc1ccncn1)N1c2nc(-c3cncc(F)c3)ccc2N2CCC1CC2 [Example 573] | C (C (EC1.5>25 μM)) |
| O=C(Nc1cccc(-c2cnco2)c1)N1c2nc(-c3cncc(F)c3)ccc2N2CCC1CC2 [Example 574] | A (A (EC1.5<1 μM)) |
| O=C(Nc1cccc(-c2cnco2)c1)N1c2nc(-c3cncc(Cl)c3)ccc2N2CCC1CC2 [Example 575] | A (A (EC1.5<1 μM)) |
| O=C(Nc1ccncn1)N1c2nc(-c3cncc(Cl)c3)ccc2N2CCC1CC2 [Example 576] | B (B (EC1.5 1-25 μM)) |
| Cc1nc(NC(=O)N2c3nc(-c4cncc(F)c4)ccc3N3CCC2CC3)sc1C [Example 577] | B (B (EC1.5 1-25 μM)) |
| COc1cc(NC(=O)N2c3nc(-c4cncc(F)c4)ccc3N3CCC2CC3)nc(OC)n1 [Example 578] | B (B (EC1.5 1-25 μM)) |
| COc1cc(NC(=O)N2c3nc(-c4cncc(F)c4)ccc3N3CCC2CC3)ncn1 [Example 579] | B (B (EC1.5 1-25 μM)) |
| O=C(Nc1ccc(-n2cncn2)cc1)N1c2nc(-c3cncc(C(F)(F)F)c3)ccc2N2CC[C@H]1C2 [Example 580] | A (A (EC1.5<1 μM)) |
| O=C(Nc1cccc(-n2cncn2)c1)N1c2nc(-c3cccc(C(F)(F)F)c3)ccc2N2CC[C@H]1C2 [Example 581] | A (A (EC1.5<1 μM)) |
| Cc1ccc(-c2ccc(NC(=O)N3c4nc(-c5cccc(C(F)(F)F)c5)ccc4N4CC[C@H]3C4)cc2)o1 [Example 582] | B (B (EC1.5 1-25 μM)) |
| Cc1nc(-c2cccc(NC(=O)N3c4nc(-c5cccc(C(F)(F)F)c5)ccc4N4CC[C@H]3C4)c2)cs1 [Example 583] | A (A (EC1.5<1 μM)) |
| O=C(Nc1cccnc1)N1c2nc(-c3cnn(C4CCCC4)c3)ccc2N2CC[C@H]1C2 [Example 587] | B (B (EC1.5 1-25 μM)) |
| O=C(Nc1cccc(-c2cnco2)n1)N1c2nc(-c3cccc(C(F)(F)F)c3)ccc2N2CC[C@H]1C2 [Example 588] | A (A (EC1.5<1 μM)) |
| O=C(Nc1cc(-c2cnco2)ccn1)N1c2nc(-c3cccc(C(F)(F)F)c3)ccc2N2CC[C@H]1C2 [Example 589] | A (A (EC1.5<1 μM)) |

Same assay, conditions: Trp mass spectrometry assay; percent maximum fold activation of SIRT1; read-out: Tryp % Fold Act

| SMILES | Emax [%] |
| --- | --- |
| O=C(O)c1cc(NC(=S)NCc2ccc(NC(=O)N3c4nc(-c5cccc(C(F)(F)F)c5)ccc4N4CC[C@H]3C4)cc2)ccc1-c1c2ccc(=O)cc-2oc2cc(O)ccc12 [Example 530] | > 150 |
| Cc1c(-c2ccc3c(n2)C(C(=O)Nc2ccccn2)[C@H]2CCN3C2)cnn1C (stereo partly shown) [Example 531] | > 150 |
| Cc1c(-c2ccc3c(n2)C(C(=O)Nc2cnccn2)[C@H]2CCN3C2)cnn1C (stereo partly shown) [Example 532] | > 150 |
| O=C(Nc1ccc(-n2cncn2)cc1)N1c2nc(-c3cncc(C(F)(F)F)c3)ccc2N2CC[C@H]1C2 [Example 580] | > 150 |
